Patent US8951580B2, “Methods for improving the safety of treating pediatric patients who are candidates for inhaled nitric oxide treatment” (priority 2009, dated 2015)

Key:
[1] = system: pulmonary vasculature of children with pulmonary hypertension; assay: INOT22 study: acute pulmonary vasodilator testing during cardiac catheterization; conditions: iNO 80 ppm; for SVRI Change From Baseline, Mean / SVRI Change From Baseline, Median / SVRI Change From Baseline, Minimum / SVRI Change From Baseline, maximum / Ratio PVRI/SVRI Change from Baseline, Maximum / Ratio PVRI/SVRI Change from Baseline, Mean / Ratio PVRI/SVRI Change from Baseline, Median / Ratio PVRI/SVRI Change from Baseline, Minimum / Ratio PVRI/SVRI Percent Change from Baseline, Maximum / Ratio PVRI/SVRI Percent Change from Baseline, Mean / Ratio PVRI/SVRI Percent Change from Baseline, Median / Ratio PVRI/SVRI Percent Change from Baseline, Minimum / Ratio PVRI/SVRI Post Treatment, Maximum / Ratio PVRI/SVRI Post Treatment, Mean / Ratio PVRI/SVRI Post Treatment, Median / Ratio PVRI/SVRI Post Treatment, Minimum / SVRI Post-treatment, Mean / SVRI Post-treatment, Median / SVRI Post-treatment, Minimum / SVRI Post-treatment, maximum: ITT, each treatment 10 minutes; for SVRI Change From Baseline, Mean / SVRI Change From Baseline, Median / SVRI Change From Baseline, Minimum / SVRI Change From Baseline, maximum: baseline room air; for tolerability: INOT22 diagnostic study, children with pulmonary hypertension
Experimental: The INOT22 study, entitled “Comparison of supplemental oxygen and nitric oxide for inhalation plus oxygen in the evaluation of the reactivity of the pulmonary vasculature during acute pulmonary vasodilatory testing” was conducted both to assess the safety and effectiveness of INOmax® as a diagnostic agent in patients undergoing assessment of pulmonary hypertension (primary endpoint), and to confirm the hypothesis that iNO is selective for the pulmonary vasculature (secondary endpoint).
In particular, the INOT22 protocol studied consecutive children undergoing cardiac catheterization that were prospectively enrolled at 16 centers in the US and Europe. Inclusion criteria: 4 weeks to 18 years of age, pulmonary hypertension diagnosis, i.e. either idiopathic pulmonary hypertension (IPAH) or related to congenital heart disease (CHD) (repaired or unrepaired) or cardiomyopathy, with pulmonary vascular resistance index (PVRI)>3 u−m^2. Later amendments, as discussed herein, added an additional inclusionary criterion of a PCWP less than 20 mm Hg. Patients were studied under general anaesthesia, or with conscious sedation, according to the practice of the investigator. Exclusion criteria: focal infiltrates on chest X-ray, history of intrinsic lung disease, and/or currently taking PDE-5 inhibitors, prostacyclin analogues or sodium nitroprusside. The study involved supplemental O2 and NO for inhalation plus O2 in the evaluation of the reactivity of the pulmonary vasculature during acute pulmonary vasodilator testing. Consecutive children undergoing cardiac catheterization were prospectively enrolled at 16 centers in the US and Europe. […] A specific secondary endpoint was evaluated in study INOT22 to provide a more definitive evaluation.
The primary objective was to compare the response frequency with iNO and O2 vs. O2 alone; in addition, all subjects were studied with iNO alone. Patients were studied during five periods: Baseline 1, Treatment Period 1, Treatment Period 2, Baseline 2 and Treatment Period 3. All patients received all three treatments; treatment sequence was randomized by center in blocks of 4; in Period 1, patients received either NO alone or O2 alone, and the alternate treatment in Period 3. All patients received the iNO and O2 combination treatment in Period 2. Once the sequence was assigned, treatment was unblinded. Each treatment was given for 10 minutes prior to obtaining hemodynamic measurements, and the Baseline Period 2 was at least 10 minutes.

[2] = system: term and near-term neonates with pulmonary hypertension and hypoxic respiratory failure; conditions: Inhaled NO n=97; number of patients (%); cited from earlier work
[3] = system: neonates with hypoxic respiratory failure; conditions: n=114, number (%), cited from earlier work

Molecule: O=O [O2, oxygen]
- SVRI Change From Baseline, Mean [1]: 1.3 WU · m^2
- SVRI Change From Baseline, Median [1]: 1.0 WU · m^2
- SVRI Change From Baseline, Minimum [1]: −18.1 WU · m^2
- SVRI Change From Baseline, maximum [1]: 17.7 WU · m^2
- Ratio PVRI/SVRI Change from Baseline, Maximum [1]: 2.0
- Ratio PVRI/SVRI Change from Baseline, Mean [1]: −0.1
- Ratio PVRI/SVRI Change from Baseline, Median [1]: −0.1
- Ratio PVRI/SVRI Change from Baseline, Minimum [1]: −1.6
- Ratio PVRI/SVRI Percent Change from Baseline, Maximum [1]: 93.3%
- Ratio PVRI/SVRI Percent Change from Baseline, Mean [1]: −19.3%
- Ratio PVRI/SVRI Percent Change from Baseline, Median [1]: −21.3%
- Ratio PVRI/SVRI Percent Change from Baseline, Minimum [1]: −122.7%
- Ratio PVRI/SVRI Post Treatment, Maximum [1]: 1.4
- Ratio PVRI/SVRI Post Treatment, Mean [1]: 0.4
- Ratio PVRI/SVRI Post Treatment, Median [1]: 0.4
- Ratio PVRI/SVRI Post Treatment, Minimum [1]: 0.0
- SVRI Post-treatment, Mean [1]: 18.9 WU · m^2
- SVRI Post-treatment, Median [1]: 17.1 WU · m^2
- SVRI Post-treatment, Minimum [1]: 3.9 WU · m^2
- SVRI Post-treatment, maximum [1]: 43.6 WU · m^2

Molecule: nitric oxide [NO]
- tolerability [1]: well-tolerated
- tolerability ([1]; listed as iNO): well-tolerated in most patients
- SVRI Change From Baseline, Mean [1]: −0.2 WU · m^2
- SVRI Change From Baseline, Median [1]: 0.2 WU · m^2
- SVRI Change From Baseline, Minimum [1]: −12.5 WU · m^2
- SVRI Change From Baseline, maximum [1]: 12.7 WU · m^2
- Ratio PVRI/SVRI Change from Baseline, Maximum [1]: 1.6
- Ratio PVRI/SVRI Change from Baseline, Mean [1]: −0.1
- Ratio PVRI/SVRI Change from Baseline, Median [1]: 0.0
- Ratio PVRI/SVRI Change from Baseline, Minimum [1]: −4.4
- Ratio PVRI/SVRI Percent Change from Baseline, Maximum [1]: 294.1%
- Ratio PVRI/SVRI Percent Change from Baseline, Mean [1]: −6.2%
- Ratio PVRI/SVRI Percent Change from Baseline, Median [1]: −13.8%
- Ratio PVRI/SVRI Percent Change from Baseline, Minimum [1]: −256.1%
- Ratio PVRI/SVRI Post Treatment, Maximum [1]: 2.2
- Ratio PVRI/SVRI Post Treatment, Mean [1]: 0.5
- Ratio PVRI/SVRI Post Treatment, Median [1]: 0.3
- Ratio PVRI/SVRI Post Treatment, Minimum [1]: −1.2
- SVRI Post-treatment, Mean [1]: 17.8 WU · m^2
- SVRI Post-treatment, Median [1]: 15.4 WU · m^2
- SVRI Post-treatment, Minimum [1]: 3.3 WU · m^2
- SVRI Post-treatment, maximum [1]: 50.7 WU · m^2
- Adverse Reaction: Atelectasis [2]: 7 (6.5%)
- Adverse Reaction: Bilirubinemia [2]: 7 (6.5%)
- Adverse Reaction: Hypokalemia [2]: 9 (8.3%)
- Adverse Reaction: Hypotension [2]: 6 (5.6%)
- Adverse Reaction: Thrombocytopenia [2]: 16 (14.8%)
- Death or ECMO ([3]; 100% O2 with 20 ppm NO for up to 14 days, primary end point): 52 (46%)
- Death ([3]; 100% O2 with 20 ppm NO): 16 (14%)
- ECMO ([3]; 100% O2 with 20 ppm NO): 44 (39%)
